In patent US6673823B2, “Use of peroxisome proliferator activated receptor (PPAR)-γ ligands as a treatment for pituitary tumors and associated conditions, such as Cushing's syndrome” (Cedars-Sinai Medical Center, priority 2002, dated 2004):

Assays:
[1] = tested on: Mouse corticotroph pituitary tumor cells (AtT20); assay: Growth of established corticotroph tumors in athymic nude mice; type: in vivo; conditions: oral 150 mg/kg/day, 3 weeks
Excerpt: The effects of TZD treatment were therefore tested on growth of already established pituitary corticotroph tumors, and steroid hormone levels in vivo. Mouse corticotroph pituitary tumor cells (AtT20) were innoculated subcutaneously in athymic nude mice, and tumors allowed to develop. […] Baseline serum ACTH and corticosterone levels, and tumor volumes were not different in the groups subsequently randomized as control or treated groups (data not shown, p=ns). […] All animals were euthanized at 6 weeks. The phenotypic appearance of the mice was strikingly different, and vehicle-treated mice were wasted, developed skin atrophy and appeared pigmented, with features of hypercorticolism (FIG. 8B).

[2] = tested on: patient with Cushing's syndrome; assay: 24 hour urinary free cortisol excretion in a patient with Cushing's syndrome; type: in vivo, human; conditions: 8 mg daily, one patient, vs. baseline, p<0.02
[3] = tested on: normal athymic Nu/Nu mice; conditions: 150 mg/kg for 6 weeks
Excerpt: A person first presented 2 years ago with bruising, skin striae, 70 lb weight gain and hypertension. Evaluation confirmed the diagnosis of Cushing's syndrome due to an ACTH-secreting pituitary tumor, which was resected by transsphenoidal surgery. The patient presented again one year later with weight gain, labile hypertension, diabetes and confirmed recurrence of Cushing's syndrome.

human patients = conditions: cited from earlier work
[4] = tested on: Somatolactotroph (GH3) tumor cells; assay: Somato-lactotroph tumor growth in athymic nude mice; type: in vivo, mouse; conditions: oral 150 mg/kg/day, 4 weeks
[5] = tested on: rat GH3 (PRL- and GH-secreting) cells; assay: Cell cycle distribution (FACS, propidium iodide); type: cell-based
Experimental: (§1) Cell Culture. […] Medium was replenished with ligands every 2 days, and cells maintained in serum-containing medium or in serum-free medium for up to 96 hours.
(§2) Cell Cycle Distribution. Following treatments, GH3, αT3, or human pituitary tumor cells were trypsinized, centrifuged (1500 rpm×2 min), washed with PBS, and treated with 20 µg/mL Rnase A (Calbiochem, La Jolla, Cailf.). DNA was stained with 100 μg/ mL propidium iodide (PI) for 30 min at 4° C. and protected from light, prior to analysis with a FACScan (Becton Dickinson, Franklin Lakes, N.J.). DNA histogram analysis was performed using the modFitLT software.
(§3) To determine the functional significance of pituitary tumor PPAR-γ expression, the effects of PPAR-γ ligands was tested on pituitary tumor cells in vitro. Troglitazone or rosiglitazone-treatment ([…]) of GH3 (PRL- and GH-secreting), and αT3 (gonadotroph-secreting) and human pituitary tumor cells for up to 48 hours, in serum-free conditions, or up to 96 hours, for cells maintained in serum-repleted conditions, induced G0-G1 cell-cycle arrest (GH3: control, G1 75±4% vs. ros, G1 85±2%, p=0.009; αT3: control, G1 67±0.5% vs. ros, G1 75±0.5%, p=0.01), and led to decreased number of cells in S-phase (GH3: control, 18±0.05% vs. ros, 12±0.5%, p=0.001; αT3: control, 31±0.5% vs. ros, 16±2.5%, p=0.03) (FIG. 11A).

[6] = tested on: mouse αT3 gonadotroph cells; assay: Cell cycle distribution (FACS, propidium iodide); type: cell-based
Experimental: as §1, §2, §3

[7] = tested on: Mouse gonadotroph pituitary tumor cells (αT3); assay: Growth of established gonadotroph tumors in athymic nude mice; type: in vivo; conditions: oral 150 mg/kg/day for 6 weeks, started 3 weeks post-inoculation; vehicle 3.2±0.76, p=0.005
Excerpt: As patients invariably present with already established and actively growing pituitary tumors, the effects of TZD treatment were therefore tested on growth of already established pituitary gonadotroph tumors in vivo. Mouse gonadotroph pituitary tumor cells (αT3) were inoculated subcutaneously in athymic nude mice, and tumors allowed to develop.

[8] = tested on: rat GH3, murine αT3, and human pituitary tumor cells; assay: Annexin-FITC, FACS and TUNEL apoptosis analysis; type: cell-based; conditions: control 33±3, p<0.0002
Experimental: Apoptosis Assay: Annexin FITC by flow Cytometry. GH3, αT3 and human pituitary tumor cells were treated, washed in PBS, trypsinized, centrifuged, and washed prior to incubation with a FITC-labeled monoclonal Annexin antibody and PI for 30 min at room temperature according to manufacturer's instructions (Pharmingen, San Diego, Cailf.). About 1×10^6 cells were prepared and analyzed by flow cytometry, labeled nuclei (PI) were gated on light scatter to remove debris, and the percentage of Annexin-FITC positive cells determined. Annexin-FITC positive cells were also visualized with an Olympus BH2 immunofluorescent microscope.
Terminal Deoxynucleotidyltransferase-mediated dUTP Nick End Labeling (TUNEL). Apoptosis-induced nuclear DNA fragmentation was detected using the in situ cell death detection kit, TMR red (Roche Diagnostics, Indianapolis, Ind.) following the manufacturer's protocol. Briefly, 48 hours following TZD treatment, GH3, αT3 and human pituitary tumor cells were fixed in 4% weight per volume paraformaldehyde, permeabilized with 0.1% sodium citrate/ 0.6% Tween 20 (pH 7.4) for 2 min at 4° C. prior to incubation in Tunel reaction mix (TMR red/dNTP mix, TdT, and labeling buffer) for 60 min at 37° C. Slides were washed (3×5 min) in PBS/Triton/BSA (0.3%) and visualized on a an Olympus BH2 immunofluorescent microscope.

[9] = tested on: gonadotroph tumor cells (LβT2); assay: Gonadotroph tumor growth in nude mice; type: in vivo, mouse; conditions: oral 150 mg/kg/day, 6 weeks
Excerpt: FIG. 14A is a representative picture of a rosiglitazone-treated mouse (“Ros”) and an untreated (control) mouse 4 weeks following commencement of administration of treatment. The untreated (control) mouse in the picture developed numerous large visible tumors.
In separate parallel similarly conducted studies, gonadotroph tumor cells (LβT2) were innoculated in mice as above.

With `CN(CCOc1ccc(CC2SC(=O)NC2=O)cc1)c1ccccn1` (racemic) [rosiglitazone, (±)-5-[[4-[2-(methyl-2-pyridinylamino)ethoxy]phenyl]methyl]-2,4-thiazolidinedione,(Z)-2-butenedioate] the “reduction in plasma ACTH” value ([1]; vs. controls) was 75%, the “reduction in serum corticosterone levels” value ([1]; vs. controls) was 96% and the “plasma ACTH, mean±SEM” value ([1]; controls 3841±308, p=0.002) was 978 ± 452 pg/mL. For the same compound, the “serum corticosterone, mean±SEM” value ([1]; controls 4304±2593, p<0.05) was 181 ± 56 ng/mL, the “decrease of 24 hour urinary free cortisol excretion (UFC)” value ([2]; after 2 weeks) was 33% and the “decrease of 24 hour urinary free cortisol excretion (UFC)” value ([2]; after 3 weeks) was 55%. The “serum corticosterone, treated vs. untreated normal mice” value ([3]; unstressed and stressed (data not shown)) was “similar”, the “Plasma ACTH, baseline (unstressed), Mean±SEM” value ([3]; controls 434±40, p=ns) was 474 ± 33 pg/mL and the “Plasma ACTH, stress-induced (15 minutes restraint), Mean±SEM” value ([3]; controls 5278±312, p=ns) was 4764 ± 292 pg/mL. For the same compound, the tolerability in humans (human patients; About 20 milligrams per day, sustained periods of time) was “without adverse effects”, the “clinical surveillance, safety” value (human patients; more than 4500 patients with type 2 diabetes) was “safe, effective” and the tumor diameter [4] was 1-2 cm. The tumor weight ([4]; control 0.13±0.01, p=0.008) was 0.04 ± 0.01 g, the “serum GH” value ([4]; control 545±153, p=0.03) was 114 ± 66 ng/mL and the “serum PRL” value ([4]; control 656±289, p=ns) was 95 ± 58 ng/mL. The “cells in S-phase” value ([5]; control 18±0.05%, p=0.001) was 12±0.5%, the “cells in G1 (G0-G1 cell-cycle arrest)” value ([5]; up to 48 h serum-free or up to 96 h serum-repleted, control 75±4%, p=0.009) was 85±2% and the “cells in S-phase” value ([6]; control 31±0.5%, p=0.03) was 16±2.5%. The “cells in G1 (G0-G1 cell-cycle arrest)” value ([6]; control 67±0.5%, p=0.01) was 75±0.5%, the “final tumor weight of established tumors” value [7] was 0.76 ± 0.29 g and the “% apoptosis” value ([8]; 10^−5 M) was 69±7%. For the same compound, the “% apoptosis” value ([8]; 10^−6 M) was 47±4%, the tumor weight ([9]; control 3.44±0.42, P<0.002) was 0.81 ± 0.19 g and the “plasma LH” value ([9]; control 69±19, p=0.004) was 6.8 ± 1.0 ng/mL.
